Reference: patent US20230357765A1, “USE OF LONG NON-CODING RNAS IN MEDULLOBLASTOMA” (THE JOHNS HOPKINS UNIVERSITY, priority 2020, published 2023)
l = locked nucleic acid (LNA); d = 2'-deoxy (DNA)

Experiments:
[1] = tested on: D425 Med and MED211 intracranial xenografts; assay: Intracranial MB xenografts treated with JQ1, bioluminescence imaging and qPCR of tumors; format: in vivo, NOD-SCID mice; conditions: JQ1 50 mg/kg intraperitoneal on alternating days for 14 days; versus DMSO
Method: FIGS. 10A-10C. JQ1 regulates lnc-HLX-2-7 via MYC in vivo. (FIG. 10A) D425 Med and MED211 cells expressing luciferase were implanted into the […] of NOD-SCID mice. Seven days after injection, mice were administered DMSO or JQ1. Tumor formation was assessed by bioluminescence imaging. Changes in bioluminescent signal were examined weekly after tumor implantation. (FIG. 10B) Quantification of total photon counts from mice treated with JQ1 or DMSO. n=4, *p<0.05, Student’s t-test. (FIG. 10C) Expression levels of MYC and lnc-HLX-2-7 were examined by qPCR in DMSO or JQ1-treated mouse xenografts. Relative expression levels compared to those in the DMSO-treated tumor are indicated on the y-axis (n=4). Error bars indicate s.e.m. n=4, *p<0.01, Student’s t-test.
Medulloblastoma Xenografts (Intracranial). All mouse studies were approved and performed in accordance with the policies and regulations of the Animal Care and Use Committee of Johns Hopkins University. Intracranial MB xenografts were established by injecting D425 Med cells, MED211 cells, D425 Med cells with lnc- HLX-2-7 deleted, and MED211 cells with lnc-HLX-2-7 deleted into the cerebellums of NOD-SCID mice (Jackson Laboratory). […] Tumor growth was evaluated by weekly bioluminescence imaging using an in vivo spectral imaging system (IVIS Lumina II, Xenogen).

[2] = tested on: D425 Med and MED211 MB cells; assay: Cell proliferation assay, living cells counted by trypan blue staining; format: cell-based, human
Method: (§1) Cell Culture. Cell lines were authenticated using single tandem repeat profiling. D425 Med cells were cultured in DMEM/ F12 with 10% serum and 1% glutamate/penicillin/streptomycin. MED211 cells were cultured in medium composed of 30% Ham’s F12/70% DMEM, 1% antibiotic antimycotic, 20% B27 supplement, 5 µg/mL heparin, 20 ng/mL epidermal growth factor (EGF), and 20 ng/mL fibroblast growth factor 2. DAOY cells were cultured in DMEM with 10% serum and 1% glutamate/penicillin/streptomycin. All cells were grown in a humidified incubator at 37° C., 5% CO2. For blocking of bromodomain and extraterminal domain family (BET) bromodomain protein in D425 Med and MED211 cells, Jun Qi 1 (JQ1) (SML1524-5MG, Sigma Aldrich) was added, and the medium was changed every other day.
Cell Proliferation, Apoptosis, and 3D Colony Formation Assays. Cells were plated in 96-well plates at 5 × 10^3 cells per well in triplicate. After 72 hours of ASO or siRNA transfection, living cells were counted by trypan blue staining. Apoptotic cells were analyzed using a GloMax luminometer (Promega) with conditions optimized for the Caspase-Glo 3/7 Assay. […] Colony number was determined using the EVE cell counter (Nano Entek), and staining intensity was analyzed using ImageJ software.

MYC = MYC expression in JQ1-treated cells, qRT-PCR; format: cell-based, human; conditions: D425 Med and MED211 cells; JQ1 100 or 300 nM; relative to DMSO
Method: as §1
(§2) Quantitative Real-Time PCR. Total RNA was purified using the Direct-zol RNA Miniprep kit (Zymo Research). To obtain RNA from xenografts, tumor tissues were pulverized and then used for purification. Quantitative PCR was carried out using SYBR Green mRNA assays as previously described.^8 Primer sequences are listed in Tables 8-9 and Supplementary Table 2 (available online).
(§3) JQ1 Regulates lnc-HLX-2-7via MYC. […] In addition, downregulation of lnc-HLX-2-7 by JQ1 was also confirmed in vivo (FIGS. 10).

lnc-HLX-2-7 [3] = assay: lnc-HLX-2-7 expression in JQ1-treated cells, qRT-PCR; format: cell-based, human; conditions: D425 Med and MED211 cells; JQ1 100 or 300 nM; relative to DMSO
Method: as §1, §2, §3

[4] = tested on: D425 Med and MED211 MB cells; assay: Apoptosis assay (Caspase-Glo 3/7); format: cell-based, human; conditions: 72 hours after ASO transfection, P < 0.01
Method: Cell Proliferation, Apoptosis, and 3D Colony Formation Assays. Cells were plated in 96-well plates at 5 × 10^3 cells per well in triplicate. After 72 hours of ASO or siRNA transfection, living cells were counted by trypan blue staining. Apoptotic cells were analyzed using a GloMax luminometer (Promega) with conditions optimized for the Caspase-Glo 3/7 Assay. For the 3D colony formation assay, cells were seeded in 24-well plates at a density of 1 × 10^2 cells/well and were stained with crystal violet solution approximately 14 days later. Colony number was determined using the EVE cell counter (Nano Entek), and staining intensity was analyzed using ImageJ software.

HLX = HLX expression after ASO treatment, qRT-PCR; format: cell-based, human; conditions: D425 Med and MED211 cells treated with ASO
From the text: FIG. 8. lnc-HLX-2-7regulates the expression of HLX coding gene. Expression levels of HLX in D425 Med and MED211 cells treated with ASO against the indicated genes in the x-axis. Relative expression level to mock is indicated in the y-axis. *p<0.01, Kruskal-Wallis analysis.
as §2
(§4) Antisense Oligonucleotides. Lnc-HLX-2-7 Antisense oligonucleotides (ASOs) were designed using the Integrated DNA Technologies (IDT) Antisense Design Tool (IDT). ASO knockdowns were performed with 50 nM (final concentration) locked nucleic acid (LNA) GapmeRs transfected with Lipofectamine 3000 (Thermo Fisher Scientific). All ASOs were modified with phosphorothioate (PS) linkages.

lnc-HLX-2-7 [5] = assay: ASO knockdown of lnc-HLX-2-7, expression by qRT-PCR; format: cell-based, human; conditions: D425 Med and MED211 cells; 50 nM ASO, Lipofectamine 3000; compared with ASO-Luc; P < 0.01
Method: FIGS. 48A-48C. Confirmation of ASO design and knockdown effect of lnc-HLX-2-7. (FIG. 48A) Diagram showing the sites targeted by each ASO. (FIGS. 48B-48C) Expression level of lnc-HLX-2-7in D425 Med (FIG. 48B) and MED211 (FIG. 48C) cells treated with ASO against the indicated genes on the x-axis. ASOs were transfected at 50 nM for 72 h using Lipofectamine 3000 (Thermo Fisher Scientific, Waltham MA). The efficiency was determined by qRT-PCR. Relative expression level to luciferase (Luc) gene is indicated on the y-axis. *p<0.01, Kruskal-Wallis analysis.
as §2
as §4, with “linkages. […]” for “linkages.”

Compound | lnc-HLX-2-7 expression in xenograft tumors [1] | cell growth (viable cell numbers) with JQ1 ([2]; effect suppressed by overexpression of lnc-HLX-2-7 (pcDNA4-lnc-HLX-2-7)) | MYC expression (MYC) | lnc-HLX-2-7 expression (lnc-HLX-2-7 [3]) | apoptosis (apoptotic cell numbers) [4] | MB cell growth (viable cell numbers) ([2]; 72 hours after ASO transfection, P < 0.01) | HLX expression (HLX) | lnc-HLX-2-7 expression (lnc-HLX-2-7 [5])
Cc1sc2c(c1C)C(c1ccc(Cl)cc1)=N[C@@H](CC(=O)OC(C)(C)C)c1nnc(C)n1-2 [JQ1, Jun Qi 1 (JQ1)] | downregulation | cell growth inhibition | downregulated | downregulated |  |  |  | 
+T^∗+G^∗+A^∗G^∗A^∗G^∗A^∗T^∗T^∗A^∗A^∗T^∗C^∗T^∗A^∗G^∗A^∗T^∗+T^∗+G^∗+C (TGAGAGATTAATCTAGATTGC; sugars from the 5' end l3 d15 l3, all phosphorothioate, methylation of C not given here) [ASO-lnc-HLX-2-7] |  |  |  |  | induced apoptosis | significantly suppressed | significantly reduced | significantly decreased
